Some test systems named below: MDA-MB-435; HL-60; TK-10; OVCAR-3; NCI/ADR-RES; NCI-H522; NCI-H226; NCI-H460; MDA-MB-231; SK-OV-3; UACC-257; HCT-116; OVCAR-4; HCT-15; 786-0; ACHN; OVCAR-8; HT-29; HCC 2998; SN12C; COLO 205; SW-620; OVCAR-5; PC-3; EKVX; T47D; SF-268; U-251; LOX IMVI; NCI-H23; MDA-N; Malme-3M; SK-MEL-5; SNB-19; SR; RPMI-8226; DU-145; MOLT-4; KM12; A549; HOP-62; SK-MEL-28; SF-295; A498; CCRF-CEM; MCF7; K562; UACC-62; IGROV-1; Hs-578T; SF-539; SK-MEL-2; SNB-75; UO-31; HOP-92; M14; RXF 393; CAKI-1.

What all share (experiment): NCI-60 cell line screen, 48 h

SMILES strings stand for the structures. Several values for one entry are separate records, joined by “and”; a condition that tells them apart may be missing. Equal entries are not always repeated.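 Protocol summary: plate cells (96-well), add compound at 5 concentrations, incubate 48 h, interpolate endpoints linearly. GI50 is the concentration that inhibits growth by half.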 Activity calls are given as the source filed them. Cut-off read from the data, not from the text of the source: active = GI50 up to about 1.1 µM and inactive = higher.

In the case of `O=c1cc(NNc2ccccc2)[nH]c(=O)[nH]1`, the GI50 is 19 µM (inactive) in the assay with MDA-MB-435; 18.2 µM (inactive) in the assay with HL-60; 47.3 µM (inactive) with TK-10; 17.2 µM (inactive) with OVCAR-3; 22.8 µM (inactive) in the assay with NCI/ADR-RES; 20.5 µM (inactive) in the assay with NCI-H522. Moreover, the GI50 is 19 µM (inactive) in the assay with NCI-H226; 27.5 µM (inactive) in the assay with NCI-H460; 15.8 µM (inactive) in the assay with MDA-MB-231; > 100 µM (inactive) in the assay on SK-OV-3; 16.1 µM (inactive) in the assay on UACC-257; 18.1 µM (inactive) with HCT-116. For the same compound, the GI50 is 16 µM (inactive) in the assay with OVCAR-4; 16.5 µM in the assay with HCT-15; 15.8 µM (inactive) in the assay on 786-0; 13.3 µM (inactive) with ACHN; 23.4 µM (inactive) in the assay with OVCAR-8; 22.1 µM (inactive) in the assay on HT-29. Further, the GI50 was 19.9 µM (inactive) in the assay with HCC 2998; 25.9 µM (inactive) with SN12C; 17.9 µM (inactive) in the assay with COLO 205; > 10 µM (inactive) in the assay on SW-620; > 100 µM (inactive) with OVCAR-5; 21.9 µM (inactive) in the assay on PC-3. For the same compound, the GI50 in the assay with EKVX was > 100 µM (inactive); with T47D it was > 10 µM (inactive); with SF-268, 25.7 µM (inactive); in the assay on U-251, 16.1 µM (inactive); with LOX IMVI, 19.8 µM (inactive); in the assay on NCI-H23 it was 56.8 µM (inactive). For the same compound, the GI50 is 20.2 µM (inactive) in the assay on MDA-N; 19.8 µM (inactive) in the assay with Malme-3M; 80.9 µM (inactive) in the assay on SK-MEL-5; 21.1 µM (inactive) in the assay on SNB-19; 28.2 µM (inactive) in the assay with SR; 11.1 µM (inactive) in the assay with RPMI-8226. Moreover, the GI50 was > 100 µM (inactive) in the assay on DU-145; 27.2 µM (inactive) in the assay on MOLT-4; 18.8 µM (inactive) with KM12; > 100 µM (inactive) in the assay with A549; 85.3 µM (inactive) in the assay with HOP-62; 11.2 µM (inactive) with SK-MEL-28. For the same compound, the GI50 in the assay with SF-295 was 37.9 µM (inactive); in the assay on A498, > 100 µM (inactive); in the assay on CCRF-CEM it was 27.5 µM (inactive); with MCF7 it was 12.9 µM (inactive); in the assay on K562, 24.1 µM (inactive); in the assay on UACC-62, 14.8 µM (inactive). For the same compound, the GI50 with IGROV-1 is 34.9 µM (inactive); in the assay with Hs-578T, 80.7 µM (inactive); in the assay with SF-539, 71.6 µM (inactive).
Take `CC(=O)OC(C)(C)/C(C)=C/C(=O)O[C@H]1C(=O)O[C@@H]2C[C@H]3[C@H](C)C(=O)C(O[C@@H]4O[C@H](CO)[C@@H](O)[C@H](O)[C@H]4O)=C[C@]3(C)[C@H]3[C@@H](O)[C@H](O)[C@@]4(C(=O)O)OC[C@]32[C@@H]14` [Bruceoside-F]: the GI50 in the assay with U-251 is 87.3 µM (inactive); in the assay on LOX IMVI, 81.3 µM (inactive); in the assay with SK-MEL-5, > 10 µM (inactive); in the assay with SK-MEL-28 it was 79.3 µM (inactive).
Turning to `CCCC(=O)Oc1ccc2c(C)cc(=O)oc2c1OC(=O)CCC`, the GI50 was 59.6 µM (inactive) in the assay with MDA-MB-435; 50.4 µM (inactive) with TK-10; 32.4 µM (inactive) with OVCAR-3; 33.2 µM (inactive) in the assay with NCI/ADR-RES; 34.8 µM (inactive) in the assay on NCI-H226; 42.6 µM (inactive) in the assay on MDA-MB-231. Besides, the GI50 with SK-OV-3 is > 100 µM (inactive); in the assay on UACC-257 it was 36.1 µM (inactive); with HCT-116 it was 39.6 µM (inactive); in the assay with OVCAR-4 it was > 100 µM (inactive); in the assay with HCT-15, 31.8 µM; with 786-0 it was 73.3 µM (inactive). For the same compound, the GI50 with ACHN was 49.5 µM (inactive); with OVCAR-8 it was 34.8 µM (inactive); in the assay on HT-29 it was 35.5 µM (inactive); with SN12C, 76.6 µM (inactive); with COLO 205, 86.1 µM (inactive); in the assay on SW-620 it was 40.1 µM (inactive). For the same compound, the GI50 is > 100 µM (inactive) in the assay with OVCAR-5; 59.3 µM (inactive) in the assay on PC-3; 70.5 µM (inactive) with EKVX; 46.2 µM (inactive) in the assay on SF-268; > 100 µM (inactive) in the assay with SK-MEL-2; 57.3 µM (inactive) in the assay with U-251. The GI50 in the assay with LOX IMVI was 40.8 µM (inactive); with NCI-H23, 48.8 µM (inactive); with MDA-N, > 100 µM (inactive); in the assay with Malme-3M, 24.3 µM (inactive); in the assay with SNB-75, 40.6 µM (inactive); in the assay with SK-MEL-5, 56 µM (inactive). Moreover, the GI50 with SNB-19 is > 100 µM (inactive); in the assay with UO-31, 60.1 µM (inactive); with HOP-92 it was 41.3 µM (inactive); in the assay on SR, 48.4 µM (inactive); in the assay with RPMI-8226 it was 26.4 µM (inactive); in the assay on DU-145 it was 50.4 µM (inactive). For the same compound, the GI50 with MOLT-4 was 50 µM (inactive); in the assay on KM12 it was 75.3 µM (inactive); in the assay with A549 it was 31.6 µM (inactive); in the assay with HOP-62, 71.3 µM (inactive); in the assay with SK-MEL-28, 54.2 µM (inactive); in the assay with M14, 48.6 µM (inactive). Also, the GI50 with SF-295 was 82.6 µM (inactive); with A498, 30.7 µM (inactive); with CCRF-CEM it was 13.9 µM (inactive); in the assay with MCF7, 55.5 µM (inactive); with K562, 60 µM (inactive); with UACC-62, 60.3 µM (inactive). Also, the GI50 with IGROV-1 was 45.7 µM (inactive); in the assay on Hs-578T, 56.6 µM (inactive); with SF-539, > 100 µM (inactive).
For `Nc1nc(N)c2ncn(-c3ccccc3)c2n1`, the GI50 in the assay on TK-10 was 54.2 µM (inactive); in the assay on RXF 393 it was 44.3 µM (inactive); in the assay with NCI-H226 it was > 100 µM (inactive); with MDA-MB-231, 64.9 µM (inactive); in the assay on UACC-257, > 100 µM (inactive); with 786-0, > 100 µM (inactive). Also, the GI50 is 56.1 µM (inactive) in the assay on HCC 2998; 93.3 µM (inactive) in the assay with SN12C; > 100 µM (inactive) in the assay with COLO 205; > 100 µM (inactive) with SW-620; 73.3 µM (inactive) in the assay on SK-MEL-2; > 100 µM (inactive) in the assay with U-251. In addition, the GI50 in the assay on LOX IMVI is > 100 µM (inactive); with MDA-N, > 100 µM (inactive); in the assay on Malme-3M, > 100 µM (inactive); in the assay on SK-MEL-5 it was > 100 µM (inactive); in the assay on SNB-19 it was > 100 µM (inactive); in the assay on UO-31 it was 36.9 µM (inactive). The GI50 in the assay with RPMI-8226 is > 100 µM (inactive); in the assay on MOLT-4 it was 38.7 µM (inactive); in the assay on KM12 it was 26.4 µM (inactive); in the assay on A549, 43.6 µM (inactive); in the assay on HOP-62 it was > 100 µM (inactive); with CAKI-1, 66.2 µM (inactive). In addition, the GI50 with A498 was 60.4 µM (inactive); in the assay with CCRF-CEM, 24.9 µM (inactive); in the assay with MCF7, 69.7 µM (inactive); with UACC-62, 41.5 µM (inactive); in the assay with IGROV-1 it was 47.2 µM (inactive); in the assay with Hs-578T, 71 µM (inactive).
Take `COc1ccc(-c2cc(-c3ccccc3)c(C#N)c(=O)n2C2OC(COC(C)=O)C(OC(C)=O)C(OC(C)=O)C2OC(C)=O)cc1` (stereo not given): in the assay on UO-31, the GI50 was 67.6 µM (inactive) and 42.4 µM (inactive).
Regarding `CC(=O)OCC1OC(n2c(=S)n(-c3ccccc3)c(=O)c3ccccc32)C(OC(C)=O)C(OC(C)=O)C1OC(C)=O` (stereo not given), the GI50 was 55.8 µM (inactive) and 48.1 µM (inactive) with OVCAR-4; 47.8 µM (inactive) and 33.6 µM (inactive) in the assay with HOP-92; 91.8 µM (inactive) and 83.4 µM (inactive) in the assay on CAKI-1.
